Data as given in US20240058315A1, “Pyridine and Pyrazine derivative for the Treatment of CF, COPD, and Bronchiectasis” (NOVARTIS AG, priority 2019, published 2024).
pEC50: −log10 of the molar value.

target: ΔF508-CFTR (Homo sapiens (Human), UniProt P13569, DEL508-508); assay: CFTR potentiator assays (membrane potential, IonWorks Quattro, Ussing chamber ion transport); format: cell-based; conditions: CFTR EC50 in 'the data measurements described above'; which of the potentiator assays is not stated
Sequence (P13569 other isoform, or with tags, fused parts or gaps del F508-F508): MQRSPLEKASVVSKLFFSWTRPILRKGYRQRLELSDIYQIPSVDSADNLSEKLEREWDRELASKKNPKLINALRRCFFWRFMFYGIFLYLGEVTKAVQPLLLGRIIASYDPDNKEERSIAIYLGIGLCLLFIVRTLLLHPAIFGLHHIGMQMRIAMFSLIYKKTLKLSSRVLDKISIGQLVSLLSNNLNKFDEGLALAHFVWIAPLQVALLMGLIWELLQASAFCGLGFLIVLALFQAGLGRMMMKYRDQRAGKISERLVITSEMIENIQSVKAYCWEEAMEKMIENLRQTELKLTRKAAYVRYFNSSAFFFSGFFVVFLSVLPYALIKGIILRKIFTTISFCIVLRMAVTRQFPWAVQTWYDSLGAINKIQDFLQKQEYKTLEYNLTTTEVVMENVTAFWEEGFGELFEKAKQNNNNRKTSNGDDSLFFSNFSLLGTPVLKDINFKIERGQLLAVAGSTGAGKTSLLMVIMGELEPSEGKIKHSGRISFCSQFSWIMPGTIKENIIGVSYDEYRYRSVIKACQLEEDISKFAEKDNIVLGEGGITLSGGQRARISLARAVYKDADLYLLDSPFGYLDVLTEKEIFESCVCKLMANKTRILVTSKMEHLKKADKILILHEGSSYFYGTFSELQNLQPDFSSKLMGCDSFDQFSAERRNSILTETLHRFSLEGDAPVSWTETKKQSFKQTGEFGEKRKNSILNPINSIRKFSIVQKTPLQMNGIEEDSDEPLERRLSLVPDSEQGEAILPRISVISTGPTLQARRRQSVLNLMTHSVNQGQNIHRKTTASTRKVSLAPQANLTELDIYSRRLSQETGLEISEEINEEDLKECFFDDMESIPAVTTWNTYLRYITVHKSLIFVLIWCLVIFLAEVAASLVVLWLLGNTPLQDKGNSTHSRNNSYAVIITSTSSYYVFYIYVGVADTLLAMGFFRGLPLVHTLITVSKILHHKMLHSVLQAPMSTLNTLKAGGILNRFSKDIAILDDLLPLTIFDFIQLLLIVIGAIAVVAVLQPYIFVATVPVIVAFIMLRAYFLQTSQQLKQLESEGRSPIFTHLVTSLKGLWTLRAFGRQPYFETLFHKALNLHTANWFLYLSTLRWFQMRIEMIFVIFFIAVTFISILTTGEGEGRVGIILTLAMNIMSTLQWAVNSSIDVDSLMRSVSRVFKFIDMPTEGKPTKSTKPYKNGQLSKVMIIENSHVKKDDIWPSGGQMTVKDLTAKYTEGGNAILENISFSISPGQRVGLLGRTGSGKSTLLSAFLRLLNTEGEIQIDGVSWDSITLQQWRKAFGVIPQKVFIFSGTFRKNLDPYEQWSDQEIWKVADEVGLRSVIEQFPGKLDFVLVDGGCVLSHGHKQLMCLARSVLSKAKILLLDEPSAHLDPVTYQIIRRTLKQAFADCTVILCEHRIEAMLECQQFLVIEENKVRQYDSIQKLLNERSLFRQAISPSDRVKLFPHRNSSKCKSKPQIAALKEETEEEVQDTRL
Excerpt: CFTR activity can be quantified by measuring the transmembrane potential. The means for measuring the transmembrane potential in a biological system can employ a number of methods including electrophysiological and optical fluorescence-based membrane potential assays.
The optical membrane potential assay utilises a negatively charged potentiometric dye, such as the FLIPR membrane potential dye (FMP) (see Baxter D F, Kirk M, Garcia A F, Raimondi A, Holmqvist M H, Flint K K, Bojanic D, Distefano P S, Curtis R, Xie Y. ‘A novel membrane potential-sensitive fluorescent dye improves cell-based assays for ion channels.’ J Biomol Screen. 2002 February; 7(1):79-85) which when extracellular is bound to a quenching agent.
Upon cellular depolarisation the negatively charged dye redistributes to the intracellular compartment, unbinding from the membrane impermeant quench agent, yielding an increase in fluorescence. This change in fluorescence is proportional to the change in transmembrane potential which can result from the activity of CFTR. The changes in fluorescence can be monitored in real time by an appropriately equipped fluorescence detector such as the FLIPR (fluorometric imaging plate reader) in 96 or 384-well microtitre plates.
Chinese hamster ovary (CHO) cells stably expressing the AF508-CFTR channel were used for membrane potential experiments. Cells were maintained at 37° C. in 5% v/v CO2 at 100% humidity in Modified Eagles medium (MEM) supplemented with 8% v/v foetal calf serum, 100 μg/ml methotrexate and 100 U/ml penicillin/streptomycin. Cells were grown in 225 cm^2 tissue culture flasks. For membrane potential assays cells were seeded into 96 well plates at 40,000 cells per well, allowed to adhere and then maintained at 26° C. for 48 h to facilitate channel insertion.
The membrane potential screening assay utilised a low chloride ion containing extracellular solution (˜5 mM) combined with a double addition protocol. The first addition was of buffer with or without test compound followed 5 minutes later by an addition of forskolin (1-20 μM)—this protocol favours maximum chloride efflux in response to ΔF508-CFTR activation. The ΔF508-CFTR mediated chloride ion efflux leads to a membrane depolarisation which is optically monitored by the FMP dye.
Low chloride extracellular (mM): 120 Na-gluconate, 1.2 CaCl2), 3.3 KH2PO4, 0.8 K2HPO4, 1.2 MgCl2, 10.0 D-glucose, 20.0 HEPES, pH 7.4 with NaOH FMP dye: made up as per manufacturers' instructions in low chloride extracellular solution detailed above, at 10× final concentration, and stored as 1 mL aliquots at −20° C.
CFTR activity can also be quantified electrophysiologically using the whole-cell configuration of the patch clamp technique (Hamill et al Pflugers Archive 1981). This assay directly measures the currents associated with chloride flow through CFTR channels whilst either maintaining or adjusting the transmembrane voltage. This assay can use either single glass micropipettes or parallel planar arrays to measure CFTR activity from native or recombinant cell systems. Currents measured using parallel planar arrays can be quantified using an appropriately equipped instrument such as the IonWorks Quattro (Molecular Devices) or the Qpatch (Sophion). The Quattro system can measure CFTR currents from either a single cell per recording well (HT configuration) or alternatively from a population of 64 cells per well (Population Patch Clamp PPC) (Finkel A, Wittel A, Yang N, Handran S, Hughes J, Costantin J. ‘Population patch clamp improves data consistency and success rates in the measurement of ionic currents.’ J Biomol Screen. 2006 August; 11(5):488-96).
Chinese hamster ovary (CHO) cells stably expressing the ΔF508-CFTR channel were used for IonWorks Quattro experiments. […]

Row | pEC50 | SMILES
1 | 7.12 | COc1nc(C(=O)NCC(C)(O)C(F)(F)F)c(N)cc1C(F)(F)F (racemic) [Example 4, 3-Amino-6-methoxy-5-trifluoromethyl-pyridine-2-carboxylic acid (3,3,3-trifluoro-2-hydroxy-2-methyl-propyl)-amide]
2 | 8.00 | C[C@@](O)(CNC(=O)c1nc(C(F)(F)F)c(C(F)(F)F)cc1N)C(F)(F)F [Example 17, 3-Amino-5,6-bis-trifluoromethyl-pyridine-2-carboxylic acid ((R)-3,3,3-trifluoro-2-hydroxy-2-methyl-propyl)-amide]
3 | 7.43 | CC(C)(O)CNC(=O)c1nc(-c2ccc(F)cc2)c(C(F)(F)F)cc1N [Example 11, 3-Amino-6-(4-fluoro-phenyl)-5-trifluoromethyl-pyridine-2-carboxylic acid (2-hydroxy-2-methyl-propyl)-amide]
4 | 7.46 | COc1nc(C(=O)NCC(O)C(F)(F)F)c(N)cc1C(F)(F)F (centres unmarked) [Example 12, 3-Amino-6-methoxy-5-trifluoromethyl-pyridine-2-carboxylic acid (3,3,3-trifluoro-2-hydroxy-propyl)-amide]
5 | 7.26 | C[C@](O)(CNC(=O)c1nc(Br)c(C(F)(F)F)cc1N)C(F)(F)F [Example 3, 3-Amino-6-bromo-5-trifluoromethyl-pyridine-2-carboxylic acid ((S)-3,3,3-trifluoro-2-hydroxy-2-methyl-propyl)-amide]
6 | 8.10 | C[C@](O)(CNC(=O)c1nc(C(F)(F)F)c(C(F)(F)F)cc1N)C(F)(F)F [Example 16, 3-Amino-5,6-bis-trifluoromethyl-pyridine-2-carboxylic acid ((S)-3,3,3-trifluoro-2-hydroxy-2-methyl-propyl)-amide]
7 | 6.37 | COc1nc(C(=O)NC[C@@](C)(O)C(F)(F)F)c(N)cc1C(F)(F)F (single isomer, unassigned) [Example 6]
8 | 7.40 | C[C@](O)(CNC(=O)c1nc(-c2ccc(F)cc2)c(C(F)(F)F)cc1N)C(F)(F)F [Example 7, 3-Amino-6-(4-fluoro-phenyl)-5-trifluoromethyl-pyridine-2-carboxylic acid ((S)-3,3,3-trifluoro-2-hydroxy-2-methyl-propyl)-amide]
9 | 7.82 | C[C@@](O)(CNC(=O)c1nc(Br)c(C(F)(F)F)cc1N)C(F)(F)F [Example 2, 3-Amino-6-bromo-5-trifluoromethyl-pyridine-2-carboxylic acid ((R)-3,3,3-trifluoro-2-hydroxy-2-methyl-propyl)-amide]
10 | 7.29 | Cc1ccc(-c2nc(C(=O)NCC(C)(O)C(F)(F)F)c(N)cc2C(F)(F)F)cn1 (single isomer, unassigned) [Example 15, 5-Amino-6′-methyl-3-trifluoromethyl-[2,3′]bipyridinyl-6-carboxylic acid (3,3,3-trifluoro-2-hydroxy-2-methyl-propyl)-amide]
11 | 7.05 | CC(O)(CNC(=O)c1nc(-c2ccc(Cl)cc2Cl)c(C(F)(F)F)cc1N)C(F)(F)F (single isomer, unassigned) [Example 9, 3-Amino-6-(2,4-dichloro-phenyl)-5-trifluoromethyl-pyridine-2-carboxylic acid (3,3,3-trifluoro-2-hydroxy-2-methyl-propyl)-amide]
12 | 7.22 | C[C@@](O)(CNC(=O)c1nc(-c2ccc(F)cc2)c(C(F)(F)F)cc1N)C(F)(F)F [Example 8, 3-Amino-6-(4-fluoro-phenyl)-5-trifluoromethyl-pyridine-2-carboxylic acid ((R)-3,3,3-trifluoro-2-hydroxy-2-methyl-propyl)-amide]
13 | 6.95 | CC(O)(CNC(=O)c1nc(-c2ccc(Cl)cc2Cl)c(C(F)(F)F)cc1N)C(F)(F)F (single isomer, unassigned) [Example 10, 3-Amino-6-(2,4-dichloro-phenyl)-5-trifluoromethyl-pyridine-2-carboxylic acid (3,3,3-trifluoro-2-hydroxy-2-methyl-propyl)-amide]
14 | 6.94 | Cc1ccc(-c2nc(C(=O)NCC(O)(C(F)(F)F)C(F)(F)F)c(N)cc2C(F)(F)F)cn1 [Example 14, 5-Amino-6′-methyl-3-trifluoromethyl-[2,3′]bipyridinyl-6-carboxylic acid (3,3,3-trifluoro-2-hydroxy-2-trifluoromethyl-propyl)-amide]
